SMILES strings stand for the structures.

For one experiment, the target named is T1, Aromatase (Homo sapiens, UniProt P11511).
T1 construct: Microsomes of human placenta; from tissue; host or cells: human placenta, microsomes
T1 sequence (P11511 1-503): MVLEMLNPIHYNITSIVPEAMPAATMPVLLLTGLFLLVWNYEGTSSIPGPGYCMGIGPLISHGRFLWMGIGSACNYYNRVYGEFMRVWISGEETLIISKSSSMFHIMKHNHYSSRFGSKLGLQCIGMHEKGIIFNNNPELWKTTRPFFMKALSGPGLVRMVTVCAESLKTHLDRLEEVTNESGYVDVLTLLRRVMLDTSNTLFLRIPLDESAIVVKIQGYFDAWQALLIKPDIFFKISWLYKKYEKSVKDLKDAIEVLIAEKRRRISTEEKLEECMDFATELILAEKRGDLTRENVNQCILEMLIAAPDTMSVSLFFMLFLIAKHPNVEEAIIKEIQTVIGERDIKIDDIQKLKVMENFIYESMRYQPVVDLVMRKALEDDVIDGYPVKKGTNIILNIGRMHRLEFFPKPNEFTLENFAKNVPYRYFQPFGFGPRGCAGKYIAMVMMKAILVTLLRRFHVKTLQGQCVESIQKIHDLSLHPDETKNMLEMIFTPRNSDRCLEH
Kind of experiment: Aromatase-inhibiting activity (radiometric, H^14COOH release; method of Covey et al.). The class given is biochemical.
Conditions: not given
As to the method:
The aromatase-inhibiting activity was measured basically according to the method described in D. F. Covey et al: BBRC […], 81-86, 1988. The aromatase-inhibiting activity of the azole derivatives used in the present invention was evaluated in terms of 50% aromatase activity-inhibiting concentration (IC50) of the derivatives.
The aromatase-inhibiting activity of each compound was measured according to the method of Covey et al: BBRC, 157 (1), 81-86, 1988. Radioactivity of a by-product H^14 COOH released from a ^14 C-labeled substrate by the action of aromatase was measured to radiometrically determine aromatase-inhibiting activity of the compounds. The aromatase-inhibiting activity of the test compound is shown by 50% aromatase activity-inhibiting concentration (IC50) of the compound.
An aromatase reaction system of the composition shown below in 67 mM phosphate buffer solution (0.5 ml) was incubated at 37° C. for 30 minutes with shaking. Chloroform (5 ml) was added to the reaction solution to stop the reaction. The reaction solution was vigorously stirred and then centrifuged to recover the by-product (H^14 COOH) of the aromatase reaction in the aqueous layer. The aqueous layer (0.1 ml) was collected and mixed with a liquid scintillation cocktail (4 ml) to measure its radioactivity.
(1) Aromatase: Microsomes of human placenta (0.1 mg/ml, protein concentration).
(2) Substrate: [19-^14 C] 4-Androstene-3,17-dione (1×10^-6 M; 2 kBq/ml).
(3) Coenzymes: Nicotinamide adenine dinucleotide phosphate, reduced form (2×10^-3 M), glucose-6-phosphate (4×10^-3 M) and glucose-6-phosphate dehydrogenase (4 U/ml).
Radioactivity of the reaction system exclusive of (1) was supposed to be background radioactivity as 100% control of aromatase inhibition. Radioactivity of the reaction system exclusive of (4) was supposed to be that of negative control as 0% of aromatase inhibition. […] 4-Hyroxyandrostenedione was used as a reference compound.
The aromatase inhibiting activities (IC50) of the optical isomers (I-3 (-) and I-3 (+)) were determined in the same way as in Example 6.
In turn, `O[C@@]1(Cc2ccc(Cl)cc2)CCC[C@@H]1Cn1ccnc1` (relative stereo) [Compound I-4, 1-(4-chlorobenzyl)-t-2-(1H-imidazol-1-ylmethyl)cyclopentan-r-1-ol] yielded an IC50 of 20 nM.
For the compound `O[C@@]1(Cc2ccc(Cl)cc2)CCC[C@H]1Cn1cncn1` (relative stereo) [Compound I-6, 1-(4-Chlorobenzyl)-c-2-(1H-1,2,4-triazol-1-ylmethyl)cyclopentan-r-1-ol], the IC50 is 40 nM.
The same measure, in the same setting: the result for `O[C@@]1(Cc2ccc(Cl)cc2Cl)CCC[C@H]1Cn1cncn1` (relative stereo) [Compound I-7, 1-(2,4-Dichlorobenzyl)-c-2-(1H-1,2,4-triazol-1-ylmethyl)cyclopentan-r-1-ol] reads 10 nM.
On to `O[C@@]1(Cc2ccc(F)cc2F)CCC[C@H]1Cn1cncn1` (relative stereo) [Compound I-8, 1-(2,4-Difluorobenzyl)-c-2-(1H-1,2,4-triazol-1-ylmethyl)cyclopentan-r-1-ol], for which the IC50 is 12 nM.
On the same count and under the same terms, the result for `O[C@@]1(Cc2ccc(-c3ccccc3)cc2)CCC[C@H]1Cn1cncn1` (relative stereo) [Compound I-9, 1-(p-Biphenylmethyl)-c-2-(1H-1,2,4-triazol-1-ylmethyl)cyclopentan-r-1-ol] reads 13 nM; that for `O[C@@]1(c2ccc(Cl)cc2)CCC[C@H]1Cn1cncn1` (relative stereo) [Compound I-12, 1-(4-Chlorophenyl)-c-2-(1H-1,2,4-triazol-1-ylmethyl)cyclopentan-r-1-ol], 10 nM; that for `CC1(C)C[C@@H](Cc2ccc(Cl)cc2)[C@](O)(Cn2ccnc2)C1` (relative stereo) [Compound I-19, c-2-(4-Chlorobenzyl)-1-(1H-imidazol-1-ylmethyl)-4,4-dimethylcyclopentan-r-1-ol], 65 nM.
The same measure, in the same setting: the result for `CC1(C)C[C@@H](Cc2ccc(Cl)cc2)[C@](O)(Cn2cncn2)C1` (relative stereo) [Compound I-20, c-2-(4-Chlorobenzyl)-4,4-dimethyl-1-(1H-1,2,4-triazol-1-ylmethyl)cyclopentan-r-1-ol] reads 40 nM.
Still for that read-out and setting: then `O[C@@]1(Cc2ccc(Cl)cc2)CCC[C@H]1Cn1ccnc1` (stereo in doubt) [Compound I-3, 1-(4-chlorobenzyl)-c-2-(1H-imidazol-1-ylmethyl)cyclopentan-r-1-ol], with 40 nM.
`CC(C)[C@@](O)(CCn1ccnc1)Cc1ccc(Cl)cc1` [Compound I-2, (3S)-3-(4-chlorobenzyl)-1-(1H-imidazol-1-yl)-4-methylpentan-3-ol] showed an IC50 of 10 nM.
Still for that read-out and setting: then `CC1(C)CC[C@@H]2Cc3ccc(Cl)cc3O[C@]21Cn1cncn1` [Compound I-14, (3aR,9aR)-6-chloro-2,3,9,9a-tetrahydro-3,3-dimethyl-3a(1H)-(1H-1,2,4-triazol-1-ylmethyl)cyclopenta[b][1]benzopyran], with 12 nM.
On the same count and under the same terms, the result for `Clc1ccc2c(c1)O[C@]1(Cn3cncn3)CCC[C@@H]1C2` [Compound I-17, (3aR,9aR)-6-Chloro-2,3,9,9a-tetrahydro-3a(1H)-(1H-1,2,4-triazol-1-ylmethyl)cyclopenta[b][1]benzopyran] reads 30 nM; that for `Fc1cccc2c1C[C@H]1CCC[C@@]1(Cn1cncn1)O2` [Compound I-18, (3aR,9aR)-8-Fluoro-2,3,9,9a-tetrahydro-3a(1H)-(1H-1,2,4-triazol-1-ylmethyl)cyclopenta[b][1]benzopyran], 13 nM.
Still for that read-out and setting: then `C[C@]12CCC(=O)C(O)=C1CC[C@@H]1[C@@H]2CC[C@]2(C)C(=O)CC[C@@H]12` [Reference, 4-Hyroxyandrostenedione, reference compound], with 20 nM.

Still in this experiment, the particulars now being: Table 1; microsomes of human placenta, [19-14C] 4-androstene-3,17-dione 1×10^-6 M, 37° C., 30 minutes; read-out: IC50 (50% aromatase activity-inhibiting concentration).
As for `O[C@@]1(Cc2ccccc2)CCC[C@@H]1Cn1ccnc1` (relative stereo) [Compound I-5, 1-(Benzyl)-t-2-(1H-imidazol-1-ylmethyl)cyclopentan-r-1-ol], the IC50 was 50 nM.
The same measure, in the same setting: then `O[C@@]1(c2ccc(Cl)cc2)CCC[C@H]1Cn1ccnc1` (relative stereo) [Compound I-10, 1--(4-Chlorophenyl)-c-2-(1H-imidazol-1-ylmethyl)cyclopentan-r-1-ol], with 30 nM; and `O[C@@]1(c2ccccc2)CCC[C@H]1Cn1ccnc1` (relative stereo) [Compound I-11, 1-(Phenyl)-c-2-(1H-imidazol-1-ylmethyl)cyclopentan-r-1-ol], with 35 nM.
For the compound `CC(C)[C@](O)(CCn1ccnc1)c1ccc(Cl)cc1` [Compound I-1, (3R)-3-(4-chlorophenyl)-1-(1H-imidazol-1-yl)-4-methylpentan-3-ol], the IC50 came to 10 nM.
As to `CC1(C)CC[C@@H]2Cc3ccc(Cl)cc3O[C@]21Cn1ccnc1` [Compound I-15, (3aR,9aR)-6-Chloro-2,3,9,9a-tetrahydro-3a(1H)-(1H-imidazol-1-ylmethyl)-3,3-dimethylcyclopenta[b][1]benzopyran], the IC50 stood at 45 nM.
The same measure, in the same setting: the result for `Clc1ccc2c(c1)O[C@]1(Cn3ccnc3)CCC[C@@H]1C2` [Compound I-16, (3aR,9aR)-6-Chloro-2,3,9,9a-tetrahydro-3a(1H)-(1H-imidazol-1-ylmethyl)cyclopenta[b][1]benzopyran] reads 30 nM.

The same experiment, now with this note: read-out: IC50 (50% aromatase activity-inhibiting concentration); Table 1; microsomes of human placenta, [19-14C] 4-androstene-3,17-dione 1×10^-6 M, 37° C., 30 minutes.
Turning to `O[C@@]1(Cc2ccc(Cl)cc2)CCC[C@H]1Cn1ccnc1` (stereo in doubt) [Compound I-13, nitrate of 1-(4-chlorobenzyl)-c-2-(1H-imidazol-1-ylmethyl)-cyclopentan-r-1-ol], the IC50 is 55 nM.

The same experiment, now with this note: read-out: IC50 of optical isomers; Example 7; same way as in Example 6.
Consider `O[C@]1(Cc2ccc(Cl)cc2)CCC[C@@H]1Cn1ccnc1` (stereo in doubt) [I-3 (+), 1-(4-chlorobenzyl)-c-2-(1H-imidazol-1-ylmethyl)cyclopentan-r-1-ol], for which the IC50 came out at 80 nM.
Same read-out and setting: the result for `O[C@]1(Cc2ccc(Cl)cc2)CCC[C@@H]1Cn1ccnc1` (stereo in doubt) [I-3 (-), 1-(4-chlorobenzyl)-c-2-(1H-imidazol-1-ylmethyl)cyclopentan-r-1-ol] reads 4 nM.
